“Also recorded” adds a separate entry of the source.
What was measured:
Type in all cases: cell-based, human
[1] = system: bleomycin hydrolase mRNA; experiment: Effect of cytokines on bleomycin hydrolase mRNA expression by quantitative PCR (Experiment 5, FIG. 14); conditions: proliferative stage cultured keratinocytes, incubated 24 hours; IL-4 and TNF-α 0.1-10 ng/ml, IFN-γ 1.0-100 ng/ml
Procedure: (§1) Normal human epidermal keratinocytes derived from neonatal epidermis (Kurabo, Osaka, Japan) were cultured in EpiLife medium (Cascade Biologics, Portland, Oreg.) containing low-concentration (0.03 mM) calcium and HKGS Growth Supplement (Cascade Biologics). All cells were incubated at 37° C. while supplying 5% CO2 and were used within 4 passages. Cells were collected at 70% confluence, 100% confluence, 2 days after confluence and 2 days after confluence in 2 mM calcium.
The expression level of bleomycin hydrolase in keratinocytes was measured by quantitative PCR using the method described below. Measurement was carried out using the Light Cycler 480 (Roche Diagnostics GmbH, Mannheim, Germany), while Light Cycler FastStart DNA Master CYBR Green I was used for the reagent. 0.6 μl aliquots of each of the following bleomycin hydrolase primers and […] of water were added to 10 μl of SYBR Green I master mix to bring to a total volume of 20 μl followed by carrying out 45 cycles of PCR consisting of 15 seconds at 95° C., 20 seconds at 55° C. and 20 seconds at 72° C. The results obtained were corrected by comparing with the results for a housekeeping gene in the form of G3PDH. • Forward primer: […] (SEQ ID NO. 1) • Reverse primer: […] (SEQ ID NO. 2)
IL-4 (final concentration: 0.1, 1.0 or 10 ng/ml), TNF-α (final concentration: 0.1, 1.0 or 10 ng/ml) and IFN-γ (final concentration: 1.0, 10 or 100 ng/ml) were respectively added to proliferative stage cultured keratinocytes, and after incubating for 24 hours, RNA was collected using Isogen. Expression of bleomycin hydrolase mRNA was measured by quantitative PCR. Based on the results shown in FIG. 14, interleukin-4 (IL-4), which is a type of Th2 cytokine, was determined to down-regulate expression of bleomycin hydrolase.

[2] = system: BH promoter; experiment: BH promoter luciferase assay in transfected keratinocytes (FIG. 20B)
Procedure: The graphs indicate the effects of cytokines Th1, Th2 and Th17 on BH gene expression. […] The graphs indicate BH promoter activity in cultured keratinocytes in the presence of IFN-γ. Keratinocytes were transfected with pGL3-216 containing intact IRF-1/2 binding sites of BH promoter regions followed by treating for 24 hours with IFN-γ (upper panel). Keratinocytes were transfected with ΔpGL3-616 (IRF-1/2 deletion mutants) followed by treating for 24 hours in the presence or absence of IFN-γ or IL-4 at 10 ng/ml (lower panel). […] Keratinocytes were transfected with siRNA (40 nM) of IRF-1 or IRF-2 followed by culturing for 24 hours, treating with IFN-γ at 10 ng/ml and isolating RNA after further culturing for 24 hours. The panel on the right indicates the silencing effects of IRF-1 and IRF-2.
Keratinocytes were cultured in a 12-well tissue culture plate at a density of 5×10^4 cells/well, and were transfected using FuGene HD Transfection reagent (Roche Diagnostics, Basel, Switzerland) and 1 μg aliquots of each construct. […] Luciferase activity was analyzed using the Dual Luciferase Reporter Assay System (Promega) and Autolumat Plus Luminometer (Berthold Technologies, Bad Wildbad, Germany). […]

[3] = system: IRF-1 mRNA; experiment: Real-time RT-PCR of transcription factor expression under cytokines (FIG. 22)
Procedure: (§2) The transcription levels of BH and related factors were analyzed by quantitative real-time RT-PCR. Total RNA was extracted from cultured cells using Isogen (Nippon Gene, Tokyo, Japan) in accordance with the manufacturer's protocol. The total RNA was reverse-transcribed to cDNA using SuperScript™ II (Invitrogen, Carlsbad, Calif.). Real-time RT-PCR was carried out with the LightCycler Raid Cycler System using the LightCycler 480 SYBR Green I Master (Roche Diagnostics) in accordance with the manufacturer's protocol. Glyceraldehyde 3-phosphate dehydrogenase (GAPDH) was used as a reference gene. Specificity of the amplified fragments was confirmed by quantitative analysis of melting curves using LightCycler analytical software. The amounts of mRNA were standardized based on the mRNA of GAPDH and finally indicated as a ratio to mRNA of an untreated control.
(§3) An investigation was made of the cytokine-dependent regulation of these transcription factors.

[4] = system: IRF-2; experiment: as above
Procedure: as §2, §3

[5] = system: BH mRNA; experiment: Real-time RT-PCR analysis of BH gene expression under cytokines (Experiment 6, FIG. 20A); conditions: proliferative keratinocytes, 24 hours, ratio to untreated control
Procedure: as §1, §2
Since BH is an NMF-generating enzyme, it has the potential to be involved in the pathophysiology of AD. Accordingly, an investigation was made of the effects of cytokines Th1, Th2 and Th17 on BH gene expression. […] Similar results were obtained with differentiated keratinocytes (data not shown). A promoter assay was carried out in order to determine the role of IFN-γ in regulation of BH gene expression, and response elements were specified. […] In addition, IRF-1 and IRF-2 gene expression was inhibited using small interfering RNA (siRNA) in order to determine whether or not IRF-1/2 is an essential mediator of IFN-γ-induced down-regulation of BH.

[6] = system: Sp-1; experiment: Real-time RT-PCR of transcription factor expression under cytokines (FIG. 22)
Procedure: as §2, §3

[7] = system: MZF-1; experiment: as above
Procedure: as §2, §3

[8] = cultured keratinocytes, concentration not given

| Substance | expression of bleomycin hydrolase mRNA [1] | BH promoter activity after deletion of IRF-1/2 binding sequence ([2]; keratinocytes transfected with IRF-1/2 deletion mutant, 10 ng/ml, 24 hours) | BH promoter activity ([2]; proliferative keratinocytes transfected with pGL3-BH-616 containing IRF-1/2 binding sequence, IFN-γ 24 hours) | expression of IRF-1 mRNA ([3]; IFN-γ, dose-dependent) | expression of IRF-2 ([4]; in the presence of IFN-γ) | expression of BH mRNA [5] | expression of BH mRNA ([5]; listed as IFN) | expression of IRF-1 ([3]; IL-4 at 100 ng/ml only) | expression of Sp-1 ([6]; IL-4 at 10 ng/ml) | expression of Sp-1 [6, 8] | expression of MZF-1 ([7]; IL-4 at 10 ng/ml) | expression of MZF-1 [7, 8] | expression of IRF-2 ([4]; IL-4 at 100 ng/ml only) |
| --- | --- | --- | --- | --- | --- | --- | --- | --- | --- | --- | --- | --- | --- |
| IFN-γ: Human IFN-γ purchased from Peprotech EC; Th1 cytokine | significantly increases | no longer inhibited | down-regulated | strongly up-regulates | up-regulated | down-regulated; also recorded: remarkably decreased | significantly decreased |  |  |  |  |  |  |
| IL-4: Human IL-4 purchased from Peprotech EC; Th2 cytokine | down-regulates |  |  |  |  | did not demonstrate any direct action whatsoever |  | significantly enhanced | most effectively down-regulated | significantly inhibited; also recorded: down-regulated | most effectively down-regulated | significantly inhibited; also recorded: down-regulated | significantly enhanced |
| IL-13: Human IL-13 produced by R&D Systems Inc.; Th2 cytokine |  |  |  |  |  | did not demonstrate any direct action whatsoever |  |  |  | significantly inhibited |  | significantly inhibited |  |
| TNF-α | significantly increases |  |  |  |  |  |  |  |  |  |  |  |  |
